How the values were obtained:
miR172c = assay: Measurement of the expression of miR172c in roots of watered soybean plants (qRT-PCR); assay type: in vivo, Glycine max; settings: plants watered with miPEP172c at 0.1 μM vs control (FIG. 1) or 0.01 μM vs control peptide (FIG. 6)
Description: (§1) Each experiment was repeated from two to three times.
(§2) The plants are regularly watered with the “caisson” medium.
(§3) The treatments are performed every two days.

NNC1 = assay: Expression of the gene NNC1 in roots of watered soybean plants (qRT-PCR); assay type: in vivo, Glycine max; settings: plants watered with miPEP172c at 0,01 μM vs control peptide at 0.01 μM (FIG. 6)
Description: as §1, §2, §3

NSP1 = settings: plants watered with miPEP172c at 0,01 μM vs control peptide at 0.01 μM (FIG. 6)
Description: (§4) After sterilisation of the grains for 3 min in bleach diluted ¼, then rinsing with sterile water, the grains are incubated for 2 hours in water. Lastly, the grains are placed in a petri dish with damp paper towels at 28° C. Once sprouted, the grains are placed in a small pot containing oil dry® medium under a glass cover. After a few days' growth, the plants of which the development is uniform are selected for the experiment and transferred into a larger pot.
(§5) The bacteria are placed in culture in Campbel liquid medium (K2PO4:0.5 g/l, MgSO4 7H2O: 0.2 g/l, NaCl: 0.1 g/l, mannitol: 10 g/l, yeast extract: 2.5 g/l, Casamino acid: 0.5 g/l) (5 ml) at 28° C., then transferred to an Erlenmeyer flask containing 100 ml of Campbel medium. After a few days of culture, when the DO is 0.3 at 595 nm, the 100 ml of culture of B. japonicum were centrifuged for 30 min at 4000 rpm. The supernatant was discarded and the pellet resuspended in “caisson” culture medium (Lullien et al., Plant gene expression in effective and ineffective root nodules of alfalfa (Medicago sativa). Plant Mol Biol 9: 469-478, 1987) to achieve a DO of 0.05 at 595 nm. Each plant is inoculated with 20 ml of this solution. The plants are regularly watered with the “caisson” medium.
(§6) The treatment is performed by watering plants with the concentrated solution of miPEP or the equivalent of solvent solution for the control treatment. […]

NIN = assay: Expression of the gene NIN in roots of watered soybean plants (qRT-PCR); assay type: in vivo, Glycine max; settings: plants watered with miPEP172c at 0,01 μM vs control peptide at 0.01 μM (FIG. 6)
Description: as §1, §2, §3

ENOD40-1 = assay: Expression of the gene ENOD40-1 in roots of watered soybean plants (qRT-PCR); assay type: in vivo, Glycine max; settings: plants watered with miPEP172c at 0,01 μM vs control peptide at 0.01 μM (FIG. 6)
Description: as §1, §2, §3

Hb2 = assay: Expression of the gene Hb2 in roots of watered soybean plants (qRT-PCR); assay type: in vivo, Glycine max; settings: plants watered with miPEP172c at 0,01 μM vs control peptide at 0.01 μM (FIG. 6)
Description: as §1, §2, §3

nifH = assay: Expression of the gene nifH in roots of watered soybean plants (qRT-PCR); assay type: in vivo, Glycine max; settings: plants watered with miPEP172c at 0,01 μM vs control peptide at 0.01 μM (FIG. 6)
Description: as §1, §2, §3

Glycine max [1] = assay: Number of nodules in soybean plants inoculated with Bradirhizobium japonicum and watered with miPEP; assay type: in vivo; settings: watering with 0.1 μM miPEP vs solvent (FIGS. 2, 9) or control peptide (FIG. 5)
Description: as §4, §5, §6

Glycine max [2] = assay: Nitrogen concentration in the aerial parts of soybean plants watered with miPEP; assay type: in vivo; settings: watering with 0.1 μM miPEP172c vs solvent (FIG. 3)
Description: The “nitrogen content” corresponds to the concentration of nitrogen in the plant or in part of the plant. For example, it can be the concentration of nitrogen in the aerial parts in g of nitrogen per kg of dry leaf weight. This concentration of nitrogen can be determined by techniques known to a person skilled in the art. For example, one method consists of burning a sample of known mass at an elevated temperature (approximately 900° C.) in the presence of oxygen, leading to a release of carbon dioxide, water, and nitrogen. The gases are then passed over particular columns (such as an aqueous potassium hydroxide solution), which absorb the carbon dioxide and water. A column containing a detector of thermal conductivity at the end is then used to separate the nitrogen from all residual carbon dioxide and the water, and the content of residual nitrogen is quantified.
as §2, §3

Glycine max [3] = assay: Fresh pod weight of soybean plants watered with miPEP; assay type: in vivo; settings: watering with 0.1 μM miPEP172c vs solvent (FIG. 4)
Description: as §4, §5, §6

Glycine max [4] = assay: Root mass (fresh root weight) of soybean plants watered with miPEP; assay type: in vivo; settings: watering with miPEP172c vs control peptide at 0.01 μM (FIG. 7)
Description: as §4, §5, §6

nifD = assay: Expression of nifD revealed by nifD-LacZ fusions in nodules; assay type: in vivo, Glycine max; settings: nodules of plants treated with miPEP172c vs control peptide (FIGS. 6 and 8)
Description: as §4, §5, §6

## miPEP172c: peptide MWVLCLFCWPTYTHGS coded by an open reading frame of the primary transcript of miR172c in Glycine max (SEQ ID NO: 2; Glycine max)
miR172c
  relative expression of miR172c: increases
NNC1
  relative expression of the gene NNC1: reducing
NSP1
  relative expression of the gene NSP1: increase
NIN
  relative expression of the gene NIN: increase
ENOD40-1
  relative expression of the gene ENOD40-1: increase
Hb2
  relative expression of the gene Hb2: increase
nifH
  relative expression of the gene NifH: increase
Glycine max [1]
  number of nodules (per gram of fresh root weight): significantly increases
Glycine max [2]
  nitrogen content of the aerial parts: significantly increases
Glycine max [3]
  fresh pod weight: significantly increases
Glycine max [4]
  development of the roots (fresh root weight): No effect
nifD
  fixation of nitrogen (NifH expression by RT-qPCR and nifD::LacZ fusions): effective fixation of nitrogen

## miPEP167c: peptide MKGVHHFFHHKYVGLRG coded by an open reading frame of the primary transcript of miR167c in Glycine max (Glycine max)
Glycine max [1]
  number of nodules (per gram of fresh root weight): significantly increases
